Data set [1] can be described thus: Solubility in fasted-state simulated colonic fluid (FaSSCoF) at pH 6.5. It counts as physicochemical. The settings on record: 25 °C, pH 6.5, fassgf or other biorelevant, thermodynamic from solid. Put shortly:
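Compounds were suspended at up to 2-10 mg/mL in pH 6.5 Tris/maleate FaSSCoF containing a five-bile-acid mixture, phosphatidylcholine, palmitic acid and BSA. After 24 h equilibration at 25° C the suspension was filtered and the filtrate quantified by HPLC peak area against a standard.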

For data set [2], the system named is Jurkat cells. The experiment in a line: Cell cytotoxicity assay (r). Format: cell-based, human. The settings on record: 24 hours. Here is the method: 1×10^5 Jurkat cells (immortalised human T lymphocytes) are added to the appropriate number of wells of a 96 well plate in 100 μL of media (RPMI supplemented with 10% foetal bovine serum). 1 μL of DMSO control (final concentration 1.0% v/v) or test compound (final concentration 20, 5 or 1 μg/mL) is added to the wells and incubated at 37° C., 5% CO2. After 24 hours, the plate is centrifuged at 1200 rpm for 3 minutes and the supernatant discarded. Cells are then resuspended in 150 μL (final concentration 7.5 μg/mL) of propidium iodide (PI) in PBS and incubated at 37° C., 5% CO2 for 15 minutes. After 15 minutes, cells are analysed by flow cytometry (BD accuri) using the FL3 window. The % viability is calculated as the % of cells that are PI negative in the test wells normalised to the DMSO control.

Setting [3] is: pH 6.5 FaSSCoF Solubility (mg/mL) Run 1.
Setting [4] is: pH 6.5 FaSSCoF Solubility (mg/mL) Run 2.

Values after ≈ are worked out from the molar mass of the structure shown.

Regarding `COc1c(NC(=O)Nc2ccc(Oc3ccnc(Nc4ccc(C(=O)NCCN5CCN(C)CC5)c(N(C)C)c4)c3)c3ccccc23)cc(C(C)(C)C)cc1NS(C)(=O)=O` [17(bq), 4-((4-((4-(3-(5-(tert-Butyl)-2-methoxy-3-(methylsulfonamido)phenyl)ureido)naphthalen-1-yl)oxy)pyridin-2-yl)amino)-2-(dimethylamino)-N-(2-(4-methylpiperazin-1-yl)ethyl)benzamide], the thermodynamic solubility at 24 h in data set [1] (setting [3]) and in data set [1] (setting [4]) was 9 µg/mL (≈ 10.7 µM) in each case. Besides, the “% Viability at 20 μg/mL” value in data set [2] was found to be 2.0%.
For the molecule `COc1cc(Nc2cc(Oc3ccc(NC(=O)Nc4cc(C(C)(C)C)cc(NS(C)(=O)=O)c4OC)c4ccccc34)ccn2)ccc1C(=O)N(C)CCN1CCN(C)CC1` [17(bh), 4-((4-((4-(3-(5-(tert-Butyl)-2-methoxy-3-(methylsulfonamido)phenyl)ureido)naphthalen-1-yl)oxy)pyridin-2-yl)amino)-2-methoxy-N-methyl-N-(2-(4-methylpiperazin-1-yl)ethyl)benzamide], the values for the solubility (thermodynamic) at 24 h in data set [1] (setting [3]) and in data set [1] (setting [4]) were 16 µg/mL (≈ 19.1 µM) and 19 µg/mL (≈ 22.6 µM), respectively. In addition, in data set [2], the “% Viability at 20 μg/mL” value worked out at 0.6%.
For the molecule `COc1cc(Nc2cc(Oc3ccc(NC(=O)Nc4cc(C(C)(C)C)cc(NS(C)(=O)=O)c4OC)c4ccccc34)ccn2)ccc1C(=O)NCCN1CCN(C(=O)CC[C@H](N)C(=O)O)CC1` [17(cl), (S)-2-Amino-5-(4-(2-(4-((4-((4-(3-(5-(tert-butyl)-2-methoxy-3-(methylsulfonamido)-phenyl)ureido)naphthalen-1-yl)oxy)pyridin-2-yl)amino)-2-methoxybenzamido)ethyl)piperazin-1-yl)-5-oxopentanoic acid], the solubility (thermodynamic) at 24 h in data set [1] (setting [3]) is 9 µg/mL (≈ 9.57 µM); in data set [1] (setting [4]) it was 6 µg/mL (≈ 6.38 µM). The “% Viability at 5 μg/mL” value in data set [2] was found to be 94.0%.
Consider `COc1cc(Nc2cc(Oc3ccc(NC(=O)Nc4cc(C(C)(C)C)cc(NS(C)(=O)=O)c4OC)c4ccccc34)ccn2)cc(OC)c1C(=O)NCCN(C)C` [Example 39, 4-((4-((4-(3-(5-(tert-Butyl)-2-methoxy-3-(methylsulfonamido)phenyl)ureido)naphthalen-1-yl)oxy)pyridin-2-yl)amino)-N-(2-(dimethylamino)ethyl)-2,6-dimethoxybenzamide], for which the solubility (thermodynamic) at 24 h in data set [1] (setting [3]) is 222 µg/mL (≈ 278 µM); in data set [1] (setting [4]), 247 µg/mL (≈ 309 µM); in data set [1] (pH 6.5 FaSSCoF Solubility (mg/mL) Run 3), 73 µg/mL (≈ 91.3 µM); in data set [1] (pH 6.5 FaSSCoF Solubility (mg/mL) Run 4), 97 µg/mL (≈ 121 µM). Also, the “% Viability at 20 μg/mL” value in data set [2] is reported as 1.5%.
Regarding `COc1cc(Nc2cc(Oc3ccc(NC(=O)Nc4cc(C(C)(C)C)cc(NS(C)(=O)=O)c4OC)c4ccccc34)ccn2)cc(OC)c1C(=O)NCCCN1CCN(C)CC1` [17(au), 4-((4-((4-(3-(5-(tert-Butyl)-2-methoxy-3-(methylsulfonamido)phenyl)ureido)naphthalen-1-yl)oxy)pyridin-2-yl)amino)-2,6-dimethoxy-N-(3-(4-methylpiperazin-1-yl)propyl)benzamide], the values for the solubility (thermodynamic) at 24 h in data set [1] (setting [3]) and in data set [1] (setting [4]) were 32 µg/mL (≈ 36.8 µM) and 23 µg/mL (≈ 26.5 µM), respectively. In data set [2], the “% Viability at 1 μg/mL” value worked out at 94.0%.
Consider `COc1cc(Nc2cc(Oc3ccc(NC(=O)Nc4cc(NS(C)(=O)=O)cc(C(C)(C)C)c4)c4ccccc34)ccn2)ccc1C(=O)NCCCN1CCN(C)CC1` [17(bp), 4-((4-((4-(3-(3-(tert-Butyl)-5-(methylsulfonamido)phenyl)ureido)naphthalen-1-yl)oxy)pyridin-2-yl)amino)-2-methoxy-N-(3-(4-methylpiperazn-1-yl)propyl)benzamide], for which the solubility (thermodynamic) at 24 h in data set [1] (setting [3]) is 23 µg/mL (≈ 28.4 µM). In data set [1] (setting [4]), the thermodynamic solubility at 24 h was 24 µg/mL (≈ 29.7 µM). In addition, in data set [2], the “% Viability at 5 μg/mL” value amounted to 41.0% and the “% Viability at 20 μg/mL” value is 2.0%.
`COc1cc(Nc2nccc(Oc3ccc(NC(=O)Nc4cc(C(C)(C)C)cc(NS(C)(=O)=O)c4OC)c4ccccc34)n2)ccc1S(N)(=O)=O` [Example 28, 4-((4-((4-(3-(5-(tert-Butyl)-2-methoxy-3-(methylsulfonamido)phenyl)ureido)naphthalen-1-yl)oxy)pyrimidin-2-yl)amino)-2-methoxybenzenesulfonamide]: the solubility (thermodynamic) at 24 h in data set [1] (setting [3]) and in data set [1] (setting [4]) was below 1 µg/mL throughout. Also, in data set [2], the “% Viability at 1 μg/mL” value stood at 100.0%.
Turning to `COc1cc(Nc2cc(Oc3ccc(NC(=O)Nc4cc(C(C)(C)C)cc(NS(C)(=O)=O)c4OC)c4ccccc34)ccn2)ccc1C(=O)NCCC1(O)CCN(C)CC1` [17(bg), 4-((4-((4-(3-(5-(tert-Butyl)-2-methoxy-3-(methylsulfonamido)phenyl)ureido)naphthalen-1-yl)oxy)pyridin-2-yl)amino)-N-(2-(4-hydroxy-1-methylpiperidin-4-yl)ethyl)-2-methoxy benzamide], the solubility (thermodynamic) at 24 h in data set [1] (setting [3]) was 16 µg/mL (≈ 19 µM); in data set [1] (setting [4]), 19 µg/mL (≈ 22.6 µM). Moreover, the “% Viability at 5 μg/mL” value in data set [2] is given as 60.0%. For the same molecule, the “% Viability at 20 μg/mL” value in data set [2] worked out at 0.3%.
In the case of `COc1cc(Nc2cc(Oc3ccc(NC(=O)Nc4cc(C(C)(C)C)cc(NS(C)(=O)=O)c4OC)c4ccccc34)ccn2)ccc1-n1ccccc1=O` [Example 31, N-(5-(tert-Butyl)-2-methoxy-3-(3-(4-((2-((3-methoxy-4-(2-oxopyridin-1(2H)-yl)phenyl)amino)-pyridin-4-yl)oxy)naphthalen-1-yl)ureido)phenyl)methanesulfonamide], the thermodynamic solubility at 24 h in data set [1] (setting [3]) and in data set [1] (setting [4]) was 3 µg/mL (≈ 4.01 µM) in each case. Further, the “% Viability at 20 μg/mL” value in data set [2] is 99.0%.
In data set [1] (setting [3]), `COc1cc(Nc2cc(Oc3ccc(NC(=O)Nc4cc(C(C)(C)C)cc(NS(C)(=O)=O)c4OC)c4ccccc34)ccn2)ccc1C(=O)NCCOCCO` [17(bm), 4-((4-((4-(3-(5-(tert-Butyl)-2-methoxy-3-(methylsulfonamido)phenyl)ureido)naphthalen-1-yl)oxy)pyridin-2-yl)amino)-N-(2-(2-hydroxyethoxy)ethyl)-2-methoxybenzamide] had a solubility (thermodynamic) at 24 h of 5 µg/mL (≈ 6.35 µM). In data set [1] (setting [4]), the thermodynamic solubility at 24 h was 5 µg/mL (≈ 6.35 µM). Further, in data set [2], the “% Viability at 5 μg/mL” value stood at 0.2% and the “% Viability at 20 μg/mL” value is given as 0.5%.
`COc1cc(Nc2cc(Oc3ccc(NC(=O)Nc4cc(C(C)(C)C)cc(NS(C)(=O)=O)c4OC)c4ccccc34)ccn2)ccc1C(=O)NC(CO)(CO)CO` [17(cm), 4-((4-((4-(3-(5-(tert-Butyl)-2-methoxy-3-(methylsulfonamido)phenyl)ureido)naphthalen-1-yl)oxy)pyridin-2-yl)amino)-N-(1,3-dihydroxy-2-(hydroxymethyl)propan-2-yl)-2-methoxybenzamide]: the solubility (thermodynamic) at 24 h was 8 µg/mL (≈ 9.96 µM) in data set [1] (setting [3]) and 9 µg/mL (≈ 11.2 µM) in data set [1] (setting [4]). In data set [2], the “% Viability at 5 μg/mL” value is on record as 77.0%.
Turning to `COc1cc(Nc2nccc(Oc3ccc(NC(=O)Nc4cc(C(C)(C)C)cc(NS(C)(=O)=O)c4OC)c4ccccc34)n2)cc(OC)c1C(=O)NCCN1CCN(C)CC1` [17(az), 4-((4-((4-(3-(5-(tert-Butyl)-2-methoxy-3-(methylsulfonamido)phenyl)ureido)naphthalen-1-yl)oxy)pyrimidin-2-yl)amino)-2,6-dimethoxy-N-(2-(4-methylpiperazin-1-yl)ethyl)benzamide], the solubility (thermodynamic) at 24 h in data set [1] (setting [3]) and in data set [1] (setting [4]) was 1 µg/mL (≈ 1.17 µM) throughout. Further, the “% Viability at 20 μg/mL” value in data set [2] is given as 4.5%.
Turning to `COc1cc(Nc2cc(Oc3ccc(NC(=O)Nc4cc(C(C)(C)C)cc(NS(C)(=O)=O)c4OC)c4ccccc34)ccn2)ccc1S(=O)(=O)CC(CO)(CO)CO` [Example 45, N-(5-(tert-Butyl)-3-(3-(4-((2-((4-((3-hydroxy-2,2-bis(hydroxymethyl)propyl)sulfonyl)-3-methoxyphenyl)amino)pyridin-4-yl)oxy)naphthalen-1-yl)ureido)-2-methoxyphenyl)-methanesulfonamide], the solubility (thermodynamic) at 24 h in data set [1] (setting [3]) and in data set [1] (setting [4]) was 5 µg/mL (≈ 5.97 µM) throughout. The “% Viability at 20 μg/mL” value in data set [2] is on record as 9.8%.
Consider `COc1cc(Nc2nccc(Oc3ccc(NC(=O)Nc4cc(C(C)(C)C)cc(NS(C)(=O)=O)c4OC)c4ccccc34)n2)ccc1C(=O)NCCCN1CCOCC1` [17(ao), 4-((4-((4-(3-(5-(tert-Butyl)-2-methoxy-3-(methylsulfonamido)phenyl)ureido)naphthalen-1-yl)oxy)pyrimidin-2-yl)amino)-2-methoxy-N-(3-morpholinopropyl)benzamide], for which the solubility (thermodynamic) at 24 h in data set [1] (setting [3]) and in data set [1] (setting [4]) was 9 µg/mL (≈ 10.9 µM) throughout. Besides, the “% Viability at 20 μg/mL” value in data set [2] came to 1.6%.
Turning to `COc1cc(Nc2cc(Oc3ccc(NC(=O)Nc4cc(C(C)(C)C)cc(NS(C)(=O)=O)c4OC)c4ccccc34)ccn2)ccc1C(=O)NCCN1CCN(C(C)C)CC1` [17(bf), 4-((4-((4-(3-(5-(tert-Butyl)-2-methoxy-3-(methylsulfonamido)phenyl)ureido)naphthalen-1-yl)oxy)pyridin-2-yl)amino)-N-(2-(4-isopropylpiperazin-1-yl)ethyl)-2-methoxybenzamide], the solubility (thermodynamic) at 24 h in data set [1] (setting [3]) was 13 µg/mL (≈ 15.2 µM); in data set [1] (setting [4]) it was 15 µg/mL (≈ 17.6 µM). The “% Viability at 5 μg/mL” value in data set [2] is reported as 1.5%. For the same molecule, the “% Viability at 20 μg/mL” value in data set [2] was determined as 0.6%.

(Values after US9751837B2, “Kinase inhibitors” (RESPIVERT LIMITED, priority 2014, dated 2017).)
